# Results: paper PMC9299220, “Inhibition of JMJD6 by 2‐Oxoglutarate Mimics” (Chemmedchem, 2021)
# Entries after “also recorded” stand apart in the source; their conditions may differ. Where two headings read alike, the source gives them in different places.
# Legend:
# JMJD6Δ363‐403 = target: T1, JMJD6Δ363‐403 (Homo sapiens, UniProt Q6NYC1); assay: MALDI-TOF MS assay of JMJD6-catalysed lysine hydroxylation of LUC7L2 267-278 peptide; assay type: biochemical; settings: for IC50: n=3, 10 μM JMJD6Δ363‐403, 100 μM LUC7L2 267‐278, 100 μM Fe(II), 400 μM L-sodium ascorbate, 20 μM 2OG, inhibitor 0–10 mM; for potency of JMJD6 inhibition (in words): MS assay
# T1 construct: made in house
# From the text: Initially, we used the MS assay to screen a range of potential JMJD6 inhibitors, based on scaffolds identified as inhibitors of other 2OG oxygenases, grouped into: (i) TCA cycle and related acidic compounds; (ii) 2OG mimics / broad spectrum 2OG oxygenase inhibitors; (iii) PHD inhibitors in clinical use / investigation; (iv) tricarbonyl type compounds, which are known iron oxygenase inhibitors; (v) reported inhibitors of the JmjC KDMs.[23]
# Figure S1. Initial inhibition assays. Bar charts showing extent of JMJD6 inhibition by 0.1, 1, and 10 mM compound: (A) TCA cycle intermediates/related compounds, (B) 2OG analogues, (C) PHD inhibitors, (D) Tricarbonyl type compounds, (E) JmjC KDM inhibitors.
# Values represent the mean ± SD (n = 3). Conditions: 10 µM JMJD6Δ363-403 (prepared as […]
# reported) and 100 µM LUC7L2267-278 ([…], with a C-terminal amide) at 37 °C in 50 mM HEPES pH 7.5 buffer with 100 µM (NH4)2Fe(SO4)2.6H2O (Sigma-Aldrich), […]
# varied inhibitor concentrations (0-10 mM). Reactions were quenched and products analysed by MALDI-TOF MS following a reported procedure.[11]
# (1 picture or pasted object on this page, not shown here)
# [1] = target: T2, JMJD6Δ363‐403.Zn(II).2OG complex (Homo sapiens, UniProt Q6NYC1); assay: Ligand-observed CPMG-edited 1H NMR 2OG displacement assay from JMJD6Δ363‐403.Zn(II).2OG complex; assay type: binding; settings: for Kd: 1H NMR, 60 µM EDTA-treated JMJD6, 200 µM Zn(II), 20 µM 2OG, 50 mM Tris-D11 pH 7.0, 10% D2O, mean ± SD (n=3), read-out: KD app (apparent binding constant) (converted); for extent of 2OG displacement from JMJD6Δ363‐403.Zn(II).2OG complex (in words): initial screen, fixed inhibitor concentration (400 µM ligand), Figure S6
# T2 construct: made in house
# From the text: We investigated whether the inhibitors compete for binding to JMJD6^Δ363‐403, using ^1H NMR to investigate the extent to which they displace 2OG from the JMJD6^Δ363‐403.Zn(II).2OG complex, initially with a fixed inhibitor concentration (Figure S6).[21, 22]
# Figure S6: 2OG displacement ligand-binding assays with JMJD6 using CPMG-edited 1H NMR. Bar charts show the extent of 2OG displacement for: (A) TCA cycle intermediates, (B) 2OG mimetics, (C) PHD inhibitors, (D) tricarbonyl type compounds, (E) KDM inhibitors. Conditions: 60 µM EDTA-treated JMJD6∆363-403, 200 µM Zn(II), 10 µM 2OG, and 400 µM of the ligand, all in 50 mM Tris-D11, pH 7.0 in 10% D2O. Values represent the mean (n = 3) ± standard deviation (SD). Eq DMSO: DMSO control without inhibitor.
# Figure S7: KDapp determination for TCA cycle intermediates / related compounds binding to JMJD6. Plots used for the determination of KDapp values of (A) fumarate and (B) […]
# succinate. […] Conditions: 60 µM
# EDTA-treated JMJD6, 200 µM Zn(II), 20 µM 2OG, 0-400 µM ligand, all in 50 mM Tris-D11 pH 7.0 in 10% D2O. Values represent the mean ± SD (n = 3). Compound structures are […]
# Figure S8: KDapp determination for pyridine derivative binding to JMJD6. Plots used for determination of KDapp values (A) 2,4-PDCA and (B) 2,4-BPDCA.
# Conditions: 60 µM EDTA-treated
# D2O. Values represent the mean ± SD (n = 3).
# Figure S9: KDapp determination for PHD inhibitor binding to JMJD6. Plots used for the determination of KDapp value (A) AKB-6899 and (B) Vadadustat.
# Conditions: 60 µM EDTA-treated JMJD6,
# Values represent the mean ± SD (n = 3).
# Conditions for NMR assays
# NMR was used to measure 2OG displacement from JMJD6 caused by inhibitors according to the method of Leung et al. The Carr-Purcell-Meiboom-Gill (CPMG) pulse sequence coupled with periodic refocusing of J evolution by coherence transfer (PROJECT) method was applied for spectral editing was used to edit out protein signals. In the initial screen […]
# 2OG and 400 µM inhibitor; the 1H NMR-spectra of 2OG were then analysed. To determine the apparent binding constant (KDapp), 20 µM of 2OG was titrated against increasing concentrations of JMJD6Δ363-403 in the presence of Zn(II) [JMJD6∆363-403.Zn(II)]. Thus, JMJD6∆363-403.Zn(II) was added until the methylene signals of 2OG were no longer observed, indicating complete 2OG binding to JMJD6. The extent of 2OG (%) bound to JMJD6Δ363-403 was calculated and the values were plotted against the concentration of JMJD6Δ363-403 using OriginTM. The KDapp of 2OG was calculated as reported.[11] To determine the KDapp for the inhibitor, the recovery of 2OG-signals was monitored in the presence of varied concentrations of inhibitor (0-800 µM).
# % 2OG Displacement = x 100 […]
# where, I2OG is the integral of the 2OG 1H signal in the presence of both inhibitor and JMJD6∆363-403.Zn(II)], I2OG(0) is the integral of 2OG in the presence of JMJD6∆363-403.Zn(II)] without inhibitor, I2OG(blank) is the integral of 2OG in the absence of both JMJD6∆363-403.Zn(II)] and inhibitor, ∆obs is the change in the integral of 2OG resulting from titration, ∆max represents the maximum change of the monitored NMR parameter (2OG integral), [L]0 is the titrated ligand concentration, and [P]0 is the JMJD6∆363-403concentration. 5-10% error was typically allowed in the curve fitting process.
Structure (SMILES),"IC50 (JMJD6Δ363‐403; mean±SD, read-out: IC50) [µM]","IC50 (JMJD6Δ363‐403; IC50, mean±SD) [µM]",further results
"O=C(O)c1ccnc(-c2cc(C(=O)O)ccn2)c1 [2,4 BPDCA, 2,2’‐bipyridine‐4,4’‐dicarboxylate, reference compound]",6 ± 1.6,,Kd [1]: 7 µM; extent of 2OG displacement from JMJD6Δ363‐403.Zn(II).2OG complex (in words) [1]: most efficiently displaced 2OG
"O=C(O)c1ccnc(C(=O)O)c1 [2,4 PDCA, pyridine‐2,4‐dicarboxylate, reference compound]",13 ± 1.3,,Kd [1]: 6 µM; extent of 2OG displacement from JMJD6Δ363‐403.Zn(II).2OG complex (in words) [1]: most efficiently displaced 2OG
O=C(O)CNC(=O)c1ncc(-c2cccc(F)c2)cc1O [AKB‐6899],9 ± 1.5,,Kd [1]: 3 µM; extent of 2OG displacement from JMJD6Δ363‐403.Zn(II).2OG complex (in words) [1]: most efficiently displaced 2OG
O=C(O)CC(O)(CC(=O)O)C(=O)O [Citrate],987 ± 1.3,,
"CN(C)NC(=O)CCC(=O)O [Daminozide, reference compound]",,94 ± 1.5,
"O=C(O)CC[C@@H](O)C(=O)O [D‐2HG, 2‐hydroxyglutarate]",622 ± 1.4,,
"Cc1nc(C(=O)NCC(=O)O)c(O)c2ccc(Oc3ccccc3)cc12 [FG‐4592, reference compound]",23 ± 1.5,,
O=C(O)/C=C/C(=O)O [Fumarate],165 ± 1.4,,potency of JMJD6 inhibition (in words) (JMJD6Δ363‐403): most potent of these compounds; Kd [1]: 109 µM; extent of 2OG displacement from JMJD6Δ363‐403.Zn(II).2OG complex (in words) [1]: most efficiently displaced 2OG
"O=C(O)CNC(=O)c1c(O)n(C2CCCCC2)c(=O)n(C2CCCCC2)c1=O [GSK1278863, reference compound]",,10 ± 1.2,
"O=C(O)c1ccc(O)c2ncccc12 [IOX1, 5‐carboxy‐8‐hydroxyquinoline, reference compound]",10 ± 1.5,,
"O=C(O)CC[C@H](O)C(=O)O [L‐2HG, 2‐hydroxyglutarate]",871 ± 1.5,,
O=C(O)CC(O)C(=O)O (centres unmarked) [Malate],5103 ± 2,,
"O=c1c(-n2ccnn2)c[nH]n1-c1cc(N2CCOCC2)ncn1 [Molidustat, reference compound]",74 ± 1.6,,
"O=C(O)CNC(=O)C(=O)O [NOG, N‐oxalylglycine, reference compound]",296 ± 1.9,,potency of JMJD6 inhibition (in words) (JMJD6Δ363‐403): poor inhibitor; also recorded: not a potent JMJD6 inhibitor; extent of 2OG displacement from JMJD6Δ363‐403.Zn(II).2OG complex (in words) [1]: only weakly displaced 2OG
O=C(O)CC(=O)C(=O)O [Oxaloacetate],204 ± 2,,
CC(=O)C(=O)O [Pyruvate],2377 ± 1.7,,
O=C(O)CCC(=O)O [Succinate],261 ± 2.3,,Kd [1]: 159 µM; extent of 2OG displacement from JMJD6Δ363‐403.Zn(II).2OG complex (in words) [1]: most efficiently displaced 2OG
O=C(O)CNC(=O)c1ncc(-c2cccc(Cl)c2)cc1O [Vadadustat],7 ± 1.6,,Kd [1]: 14 µM; extent of 2OG displacement from JMJD6Δ363‐403.Zn(II).2OG complex (in words) [1]: most efficiently displaced 2OG

Structure (SMILES),"IC50 (JMJD6Δ363‐403; mean±SD, read-out: IC50) [µM]","IC50 (JMJD6Δ363‐403; IC50, mean±SD) [µM]",further results
O=C(O)CNC(=O)CNC(=O)C(=O)O [compound 1],189 ± 1.5,,
O=C(O)c1ccnc2c(O)cccc12 [compound 2],5 ± 1.3,,
O=C(O)CCC(=O)NO [compound 3],25 ± 2,,
CCOC(=O)CNC(=O)c1c(O)n(C2CCCCC2)c(=O)n(C2CCCCC2)c1=O [compound 4],,175 ± 1.5,
O=C(O)CNC(=O)c1c(O)[nH]c(=O)[nH]c1=O [compound 5],,19 ± 1.3,
Cn1c(O)c(C(=O)NCC(=O)O)c(=O)n(C)c1=O [compound 6],,23 ± 1.2,
Cn1c(O)c(C(=O)CCc2ccccc2)c(=O)n(C)c1=O [compound 7],,43 ± 1.1,
Cn1c(O)c(C(=O)CCc2cccs2)c(=O)n(C)c1=O [compound 8],,27 ± 1.4,
CCn1c(O)c(C(=O)CCC2CCCC2)c(=O)n(CC)c1=O [compound 9],,≥ 1000,
O=C(CCC1CCCC1)c1c(O)n(C2CCCCC2)c(=O)n(C2CCCCC2)c1=O [compound 10],,≥ 1000,
Cn1c(O)c(C(=O)CCC2CCCC2)c(=O)n(C)c1=O [compound 11],,67 ± 1.2,
COc1ccccc1CCC(=O)c1c(O)n(C)c(=O)n(C)c1=O [compound 12],,58 ± 1.4,
COc1cccc(CCC(=O)c2c(O)n(C)c(=O)n(C)c2=O)c1 [compound 13],,135 ± 1.3,
Cn1c(O)c(C(=O)CCC2CC2)c(=O)n(C)c1=O [compound 14],,163 ± 1.3,
Cn1c(O)c(C(=O)CCc2ccsc2)c(=O)n(C)c1=O [compound 15],,≥ 1000,
CC(Cc1ccsc1)C(=O)c1c(O)n(C)c(=O)n(C)c1=O (centres unmarked) [compound 16],,214 ± 1.4,
CC(Cc1ccsc1)C(=O)c1c(O)n(C)c(=O)n(C)c1=O (centres unmarked) [compound 17],,22 ± 1.4,
